In PubChem BioAssay (NCI) one finds GI50 and TGI data, which are given here for eleven molecules.

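In this assay, cells in 96-well plates receive the compound at five concentrations for 48 hours. Endpoints are linearly interpolated between the surrounding concentrations. The concentration for 50% growth inhibition is given as GI50. TGI: total growth inhibition.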 Where only a bound is given, the exact number is not on record here.

Among the test systems are A498 renal; IGROV1 ovarian; NCI-H226 lung; OVCAR-5 ovarian; OVCAR-8 ovarian; PC-3 prostate; SF-539 CNS; SK-OV-3 ovarian; SN12C renal; U251 CNS.
Holding throughout (experiment): growth of human tumour cells (NCI), 48 h

Turning to `COCCOc1cnc2ccn([C@H](C)c3nnc4c(F)cc(-c5cnn(C)c5)cn34)c(=O)c2c1`, the GI50 was 33.1 µM in the assay with A498 renal; greater than 100 µM in the assay on IGROV1 ovarian; greater than 100 µM in the assay with NCI-H226 lung; greater than 100 µM in the assay on OVCAR-5 ovarian; greater than 100 µM in the assay on OVCAR-8 ovarian; greater than 100 µM in the assay on PC-3 prostate. The GI50 with SF-539 CNS, in the assay on SK-OV-3 ovarian, in the assay on SN12C renal and with U251 CNS was greater than 100 µM in each case. Also, the TGI in the assay with A498 renal, in the assay with IGROV1 ovarian, with NCI-H226 lung, in the assay with OVCAR-5 ovarian, in the assay with OVCAR-8 ovarian and with PC-3 prostate was greater than 100 µM each time. The TGI in the assay on SF-539 CNS, in the assay on SK-OV-3 ovarian, with SN12C renal and with U251 CNS was greater than 100 µM throughout.
`COc1cc2ncn(-c3cc(OCCc4ccccc4)c(C(N)=O)s3)c2cc1OC`: the GI50 was 2.43 µM with A498 renal; greater than 25 µM with IGROV1 ovarian; greater than 25 µM with NCI-H226 lung; greater than 25 µM with OVCAR-5 ovarian; greater than 25 µM in the assay on OVCAR-8 ovarian; greater than 25 µM with PC-3 prostate. Further, the GI50 with SF-539 CNS was greater than 25 µM; in the assay on SK-OV-3 ovarian, greater than 25 µM; with SN12C renal it was 24.9 µM; with U251 CNS, greater than 25 µM. The TGI in the assay with A498 renal was greater than 22.3 µM; with IGROV1 ovarian, greater than 25 µM; in the assay with NCI-H226 lung, greater than 25 µM; with OVCAR-5 ovarian, greater than 25 µM; in the assay on OVCAR-8 ovarian, greater than 25 µM; with PC-3 prostate, greater than 25 µM. For the same molecule, the TGI in the assay with SF-539 CNS, in the assay with SK-OV-3 ovarian, in the assay on SN12C renal and in the assay with U251 CNS was greater than 25 µM in each case.
Take `COc1ccc2c(O)cc3c(c2c1)[C@H](CCl)CN3C(=O)c1cc2cc(NC(=O)CCN3CCOCC3)ccc2[se]1`: the GI50 in the assay with A498 renal, in the assay on IGROV1 ovarian, with NCI-H226 lung, in the assay on OVCAR-5 ovarian, with OVCAR-8 ovarian and in the assay on PC-3 prostate was less than 0.001 µM each time. Besides, the GI50 in the assay on SF-539 CNS, in the assay with SK-OV-3 ovarian, in the assay on SN12C renal and in the assay with U251 CNS was less than 0.001 µM throughout. The TGI in the assay with A498 renal is less than 0.001 µM; with IGROV1 ovarian, 1.36 µM; in the assay with NCI-H226 lung, 0.00163 µM; with OVCAR-5 ovarian, 1.29 µM; with OVCAR-8 ovarian, 0.0843 µM; with PC-3 prostate it was 0.0699 µM. Also, the TGI in the assay with SF-539 CNS came to 0.00264 µM; in the assay on SN12C renal, 0.0334 µM; in the assay with U251 CNS it was 0.385 µM.
Consider `Cc1cc(C2CC(O)C(CO)O2)cc2c(=O)[nH]c(N)nc12` (stereo not drawn), for which the GI50 with A498 renal was greater than 100 µM; in the assay on IGROV1 ovarian, 71 µM; with NCI-H226 lung, greater than 100 µM; with OVCAR-5 ovarian, greater than 100 µM; in the assay on OVCAR-8 ovarian, greater than 100 µM; in the assay on PC-3 prostate it was greater than 100 µM. For the same molecule, the GI50 in the assay with SF-539 CNS, with SK-OV-3 ovarian, in the assay with SN12C renal and in the assay with U251 CNS was greater than 100 µM in each case. Also, the TGI in the assay with A498 renal, in the assay on IGROV1 ovarian, in the assay on NCI-H226 lung, in the assay with OVCAR-5 ovarian, with OVCAR-8 ovarian and in the assay with PC-3 prostate was greater than 100 µM throughout. The TGI in the assay on SF-539 CNS, in the assay with SK-OV-3 ovarian, in the assay on SN12C renal and with U251 CNS was greater than 100 µM in each case.
With `Cn1cc(C2=C(c3cn(CCCCCN)c4ccccc34)C(=O)NC2=O)c2ccccc21`, the GI50 was 11.3 µM in the assay with A498 renal; 14.7 µM in the assay with IGROV1 ovarian; greater than 25 µM in the assay on NCI-H226 lung; greater than 25 µM in the assay with OVCAR-5 ovarian; 11 µM with OVCAR-8 ovarian; 13.8 µM with PC-3 prostate. Further, the GI50 in the assay on SF-539 CNS was 6.42 µM; in the assay on SK-OV-3 ovarian, 10.9 µM; in the assay with SN12C renal, 9.33 µM; in the assay with U251 CNS it was 10.8 µM. The TGI in the assay on A498 renal, with IGROV1 ovarian, with NCI-H226 lung, with OVCAR-5 ovarian, with OVCAR-8 ovarian and with PC-3 prostate was greater than 25 µM each time. The TGI is 21.6 µM in the assay with SF-539 CNS, greater than 25 µM with SK-OV-3 ovarian, greater than 25 µM in the assay with SN12C renal and greater than 25 µM in the assay on U251 CNS.
In the case of `CCc1ccccc1NC(=O)c1sc2nc3c(cc2c1N)C(=O)CCC3`, the GI50 in the assay with A498 renal was 0.22 µM; with IGROV1 ovarian it was 15.5 µM; in the assay with NCI-H226 lung it was 23.2 µM; in the assay with OVCAR-5 ovarian, 1.96 µM; in the assay on OVCAR-8 ovarian it was 2.88 µM; in the assay with PC-3 prostate, 0.461 µM. Besides, the GI50 in the assay with SF-539 CNS was 0.373 µM; in the assay on SK-OV-3 ovarian, 0.537 µM; with SN12C renal, 0.729 µM; in the assay on U251 CNS it was 0.608 µM. Further, the TGI in the assay on A498 renal is 5.52 µM; in the assay with IGROV1 ovarian, greater than 100 µM; in the assay with NCI-H226 lung, greater than 100 µM; in the assay on OVCAR-5 ovarian, greater than 100 µM; in the assay on OVCAR-8 ovarian it was greater than 100 µM; in the assay on PC-3 prostate, greater than 100 µM. In addition, the TGI with SF-539 CNS was 3.15 µM; with SK-OV-3 ovarian, 75.7 µM; in the assay with SN12C renal, greater than 100 µM; in the assay on U251 CNS, 51.7 µM.
Take `O=C(Nc1ccc(-n2cc(-c3ccncc3)c(-c3ccc(Cl)c(O)c3)n2)cc1)Nc1ccc(Cl)c(C(F)(F)F)c1`: the GI50 in the assay on A498 renal was 1.63 µM; in the assay with IGROV1 ovarian, 2.29 µM; in the assay on NCI-H226 lung, 2.76 µM; in the assay with OVCAR-5 ovarian, 3.3 µM; with OVCAR-8 ovarian it was 1.77 µM; with PC-3 prostate it was 1.86 µM. For the same molecule, the GI50 with SF-539 CNS was 1.31 µM; in the assay on SK-OV-3 ovarian, 2.02 µM; in the assay with SN12C renal it was 1.59 µM; with U251 CNS, 1.08 µM. Also, the TGI with A498 renal was 9.29 µM; in the assay on IGROV1 ovarian it was 4.96 µM; in the assay on NCI-H226 lung, 10.8 µM; in the assay on OVCAR-5 ovarian it was 8.98 µM; in the assay with OVCAR-8 ovarian, 4.8 µM; in the assay with PC-3 prostate it was 9.63 µM. In addition, the TGI in the assay on SF-539 CNS amounted to 3.48 µM; in the assay on SK-OV-3 ovarian it was 4.69 µM; in the assay on SN12C renal, 3.86 µM; in the assay with U251 CNS, 2.32 µM.
`COc1ccc2ncn(-c3cc(O[C@H](C)c4ccccc4Cl)c(C(N)=O)s3)c2c1`: the GI50 with A498 renal is 0.0441 µM; in the assay on IGROV1 ovarian, 0.0284 µM; with NCI-H226 lung, 0.6 µM; with OVCAR-5 ovarian it was 0.0263 µM; with OVCAR-8 ovarian, 0.0274 µM; with PC-3 prostate, 0.0733 µM. The GI50 in the assay on SF-539 CNS was 0.0374 µM; in the assay with SK-OV-3 ovarian, 0.0246 µM; in the assay on SN12C renal it was 0.954 µM; with U251 CNS, 0.0234 µM. The TGI in the assay on A498 renal is 0.57 µM; in the assay on IGROV1 ovarian, greater than 25 µM; with NCI-H226 lung, 12.7 µM; in the assay with OVCAR-5 ovarian it was greater than 25 µM; in the assay on OVCAR-8 ovarian, 20.8 µM; in the assay with PC-3 prostate it was greater than 25 µM. Moreover, the TGI in the assay with SF-539 CNS is 5.54 µM; in the assay with SK-OV-3 ovarian, greater than 25 µM; with SN12C renal, greater than 25 µM; in the assay with U251 CNS it was greater than 25 µM.
For the molecule `[Au+].[Au+].[Au+].[c-]1nccn1Cc1ccccc1.[c-]1nccn1Cc1ccccc1.[c-]1nccn1Cc1ccccc1`, the GI50 in the assay with A498 renal was 16.1 µM; in the assay with IGROV1 ovarian, 3.48 µM; in the assay with NCI-H226 lung, 14.6 µM; in the assay with OVCAR-5 ovarian it was 27.8 µM; with OVCAR-8 ovarian it was 5.06 µM; in the assay with PC-3 prostate, 17.4 µM. In addition, the GI50 was 2.96 µM in the assay on SF-539 CNS, 19.4 µM in the assay on SK-OV-3 ovarian, 8.42 µM in the assay on SN12C renal and 9.03 µM in the assay on U251 CNS. The TGI in the assay on A498 renal was 33.6 µM; in the assay with IGROV1 ovarian, 7.92 µM; in the assay on NCI-H226 lung, 71.4 µM; in the assay on OVCAR-5 ovarian, 61.9 µM; in the assay on OVCAR-8 ovarian, greater than 42.6 µM; in the assay with PC-3 prostate, 34.4 µM. In addition, the TGI with SF-539 CNS turned out to be 9.15 µM; with SK-OV-3 ovarian, 36.8 µM; in the assay on SN12C renal it was 55.3 µM.
With `COc1cc2c3c(n(CCCN(C)C)c(=O)c2cc1OC)-c1ccccc1C3=O`, the GI50 is 24.7 µM with A498 renal; 1.61 µM with IGROV1 ovarian; 18.6 µM with NCI-H226 lung; greater than 91.6 µM in the assay on OVCAR-5 ovarian; 7.87 µM with OVCAR-8 ovarian; 9.02 µM in the assay on PC-3 prostate. For the same molecule, the GI50 in the assay on SF-539 CNS is 4.47 µM; in the assay on SK-OV-3 ovarian, 29.4 µM; with SN12C renal, 7.16 µM; in the assay with U251 CNS it was 12.2 µM. The TGI is greater than 73.9 µM in the assay with A498 renal; greater than 51.7 µM with IGROV1 ovarian; greater than 100 µM in the assay on NCI-H226 lung; greater than 100 µM in the assay with OVCAR-5 ovarian; greater than 100 µM in the assay on OVCAR-8 ovarian; greater than 48.7 µM with PC-3 prostate. Further, the TGI is 28.7 µM with SF-539 CNS, greater than 100 µM in the assay with SK-OV-3 ovarian, 72.3 µM in the assay with SN12C renal and greater than 55.9 µM in the assay on U251 CNS.
Consider `COc1cc2c(cc1O)C1Cc3ccc(OC)c(O)c3C(C2)N1C` (stereo not drawn), for which the TGI in the assay on A498 renal, in the assay on IGROV1 ovarian, in the assay with NCI-H226 lung, in the assay with OVCAR-5 ovarian, in the assay on OVCAR-8 ovarian and with PC-3 prostate was greater than 100 µM throughout. Moreover, the TGI in the assay on SF-539 CNS, with SK-OV-3 ovarian, in the assay on SN12C renal and with U251 CNS was greater than 100 µM throughout.
